# Measurements: ChEMBL document CHEMBL5260828, “Amphiphilic glycoconjugates as potential anti-cancer chemotherapeutics” (Eur J Med Chem, 2018)
# Legend:
# P388 = experiment: Cytotoxicity against mouse P388 cells; format: functional, cell-based; conditions: Mus musculus, P388; read-out: IC50
# L1210 = experiment: Cytotoxicity against mouse L1210 cells; format: functional, cell-based
# Jurkat [1] = experiment: Inhibition of cell growth in human Jurkat cells at 25 ug/ml; format: functional
# MDA-MB-231 [2] = experiment: Cytotoxicity against human MDA-MB-231 cells assessed as cell growth inhibition by alamar blue assay; format: functional, cell-based
# MCF7 [3] = experiment: Cytotoxicity against human MCF7 cells assessed as cell growth inhibition by MTT assay; format: functional, cell-based
# HeLa [4] = experiment: Cytotoxicity against human HeLa cells assessed as cell growth inhibition by alamar blue assay; format: functional, cell-based
# U-937 = experiment: Cytotoxicity against human U-937 cells assessed as cell growth inhibition by alamar blue assay; format: functional, cell-based
# Jurkat [5] = experiment: Cytotoxicity against human Jurkat cells assessed as cell growth inhibition by alamar blue assay; format: functional, cell-based
# MCF-10A = experiment: Cytotoxicity against human MCF-10A cells assessed as cell growth inhibition by alamar blue assay; format: functional, cell-based
# HeLa [6] = experiment: Cytotoxicity against human HeLa cells assessed as inhibition of cell growth incubated for 24 hrs by MTT assay; format: functional, cell-based
# Ca-Ski = experiment: Cytotoxicity against human Ca-Ski cells assessed as inhibition of cell growth incubated for 24 hrs by MTT assay; format: functional, cell-based
# [7] = target: RAC-alpha serine/threonine-protein kinase (Homo sapiens, UniProt P31749); experiment: Inhibition of AKT1 (unknown origin) in presence of ATP by ELISA
# IGROV-1 [8] = experiment: Antiproliferative activity against human IGROV-1 cells assessed as inhibition of cell growth incubated for 72 hrs by Coulter counter assay; format: functional, cell-based; conditions: IGROV-1, 72 h
# IGROV-1 [9] = experiment: Antiproliferative activity against human IGROV-1 cells assessed as inhibition of cell growth incubated for 72 hrs in serum-free medium by Coulter counter assay; format: functional, cell-based; conditions: IGROV-1, 72 h
# T-24 = experiment: Cytotoxicity against human T24 cells assessed as cell viability; format: functional
# KB = experiment: Cytotoxicity against human KB cells assessed as cell growth inhibition incubated for 24 hrs by MTT assay; format: functional, cell-based
# A549 = experiment: Cytotoxicity against human A549 cells assessed as cell growth inhibition incubated for 24 hrs by MTT assay; format: functional, cell-based; conditions: A549, 24 h
# Col2 = experiment: Cytotoxicity against human Col2 cells assessed as cell growth inhibition incubated for 24 hrs by MTT assay; format: functional, cell-based; conditions: Col2, 24 h
# K562 [10] = experiment: Cytotoxicity against human K562 cells assessed as cell growth inhibition incubated for 24 hrs by MTT assay; format: functional, cell-based; conditions: K562, 24 h
# MDA-MB-231 [11] = experiment: Cytotoxicity against human MDA-MB-231 cells assessed as cell growth inhibition incubated for 24 hrs by MTT assay; format: functional, cell-based; conditions: MDA-MB-231, 24 h
# MCF7 [12] = experiment: Inhibition of cell growth in human MCF7 cells at 6 ug/ml incubated for 96 hrs; format: functional
# MDA-MB-231 [13] = experiment: Inhibition of cell growth in human MDA-MB-231 cells at 6 ug/ml incubated for 96 hrs; format: functional
# K562 [14] = experiment: Antiproliferative activity against human K562 cells assessed as reduction in cell viability incubated for 48 hrs by CCK-8 assay; format: functional, cell-based; conditions: K562, 48 h
# ACHN = experiment: Cytotoxicity against human ACHN cells assessed as cell viability; format: functional
# SMMC-7721 = experiment: Cytotoxicity against human SMMC-7721 cells assessed as cell growth inhibition incubated for 48 hrs by MTT assay; format: functional, cell-based; conditions: SMMC-7721, 48 h
# HeLa [15] = experiment: Cytotoxicity against human HeLa cells assessed as cell growth inhibition incubated for 48 hrs by MTT assay; format: functional, cell-based
# B16 = experiment: Cytotoxicity against mouse B16 cells assessed as cell growth inhibition incubated for 48 hrs by MTT assay; format: functional, cell-based; conditions: B16, 48 h
# Chain of RAC-alpha serine/threonine-protein kinase (P31749 whole entry): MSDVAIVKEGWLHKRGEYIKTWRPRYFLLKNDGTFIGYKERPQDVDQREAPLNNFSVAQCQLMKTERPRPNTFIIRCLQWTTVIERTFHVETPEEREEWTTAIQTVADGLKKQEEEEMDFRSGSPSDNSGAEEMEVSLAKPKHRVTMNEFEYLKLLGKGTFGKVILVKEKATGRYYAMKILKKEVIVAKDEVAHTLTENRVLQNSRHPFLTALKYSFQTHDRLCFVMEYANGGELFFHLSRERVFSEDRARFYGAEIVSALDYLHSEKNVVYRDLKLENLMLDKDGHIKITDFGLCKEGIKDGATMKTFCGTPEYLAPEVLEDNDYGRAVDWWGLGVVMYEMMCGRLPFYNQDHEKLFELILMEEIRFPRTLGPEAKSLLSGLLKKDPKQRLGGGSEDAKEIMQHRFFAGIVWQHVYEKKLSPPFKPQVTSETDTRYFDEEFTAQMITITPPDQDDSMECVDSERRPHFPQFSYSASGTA
smiles,measurement,setting,value
CO[C@@H]1[C@H](O[C@@H]2CO[C@@H](O[C@@H]3[C@@H](O)[C@H](O)CO[C@H]3N3C(=O)/C(=C(O)/C=C/C=C/C=C/C=C/C=C(Cl)/C=C(\C)Cl)C(=O)[C@@H]3CC(N)=O)[C@@H](O)[C@@H]2O)O[C@H](C)[C@H]1O [AURANTOSIDE A],IC50,P388,1.8 µg/mL
same,IC50,L1210,3.4 µg/mL
CCCCOC(=O)CCCCCCC/C=C/CCCCCC[C@H](C)O[C@@H]1O[C@H](COC(C)=O)[C@@H](O)[C@H](O)[C@H]1O[C@@H]1O[C@H](COC(C)=O)[C@@H](O)[C@H](O)[C@H]1O,inhibition at 25 µg/mL,Jurkat [1],99.7%
C/C=C(\C)C(=O)O[C@@H]1[C@@H](O)[C@@H]2O[C@H]3[C@H](O[C@@H](CCCCC)CCCCCCCCCC(=O)OC[C@@H](O2)[C@H]1OC(=O)/C=C/c1ccccc1)O[C@H](C)[C@H](OC(C)=O)[C@@H]3O,IC50,MDA-MB-231 [2],16.1 nM
same,IC50,MCF7 [3],33 nM
same,IC50,HeLa [4],14.9 nM
same,IC50,U-937,11.1 nM
same,IC50,Jurkat [5],9.7 nM
same,IC50,MCF-10A,30.7 nM
CC(=O)OC[C@H]1O[C@H]2O[C@@H](C)CCCCCC/C=C/CCCCCC(=O)O[C@@H]3[C@@H](O)[C@H](O[C@@H]2[C@@H](O)[C@@H]1O)O[C@H](COC(C)=O)[C@H]3O,IC50,HeLa [6],62.9 µg/mL
same,IC50,Ca-Ski,82.2 µg/mL
CCCCCCCCCC(=O)OCC(COC(=O)CCCCCCCCC)O[C@@H]1O[C@H](C(=O)O)[C@@H](O)[C@H](O)[C@H]1O,IC50,[7],30800 nM
same,IC50,IGROV-1 [8],156000 nM
same,IC50,IGROV-1 [9],9400 nM
C\C(Cl)=C/C(Cl)=C/C=C/C=C/C=C/C=C/C(O)=C1\C(=O)[C@H](CC(N)=O)N([C@@H]2OC[C@@H](O)[C@H](O)[C@H]2O[C@@H]2OC[C@@H](O[C@@H]3O[C@H](C)[C@@H](O)[C@@H]3O)[C@@H](O)[C@@H]2O)C1=O [AURANTOSIDE B],IC50,P388,3.2 µg/mL
same,IC50,L1210,3.3 µg/mL
COc1cccc2c1C(=O)c1c(O)c3c(c(O)c1C2=O)C[C@@](O)(C(=O)CO)C[C@@H]3O[C@H]1C[C@H](N)[C@H](O)[C@H](C)O1 [DOXORUBICIN],Activity,T-24,79%
CCOC(=O)CCCCCCC/C=C/CCCCCC[C@H](C)O[C@@H]1O[C@H](COC(C)=O)[C@@H](O)[C@H](O)[C@H]1O[C@@H]1O[C@H](COC(C)=O)[C@@H](O)[C@H](O)[C@H]1O,inhibition at 25 µg/mL,Jurkat [1],90%
CCCCCCCCO[C@@H]1O[C@@H](C)[C@H](OC(=O)CCCCC)[C@@H](O[C@@H]2O[C@@H](C)[C@H](OC(C)=O)[C@@H](O[C@@H]3O[C@@H](C)[C@H](OC(C)=O)[C@@H](O[C@@H]4O[C@@H](C)[C@H](O)[C@@H](O)[C@H]4O)[C@H]3OC(C)=O)[C@H]2OC(C)=O)[C@H]1O,IC50,KB,700 nM
same,IC50,A549,700 nM
same,IC50,Col2,700 nM
same,IC50,K562 [10],700 nM
same,IC50,MDA-MB-231 [11],700 nM
CC/C=C\C/C=C\C/C=C\CCCCCCCC(=O)OC[C@@H](CO[C@@H]1O[C@H](CO)[C@H](O)[C@H](O)[C@H]1O)OC(=O)CCCCCCC/C=C\C/C=C\C/C=C\CC,inhibition at 6 µg/mL,MCF7 [12],90%
same,inhibition at 6 µg/mL,MDA-MB-231 [13],90%
CCCCCCCCCCN1C[C@H](NC(C)=O)[C@@H](O)[C@H](O)C1=O,IC50,K562 [14],19800 nM
CC(=O)O[C@H]1C(=O)[C@@]2(C)[C@H]([C@H](OC(=O)c3ccccc3)[C@]3(O)C[C@H](OC(=O)[C@H](O)[C@@H](NC(=O)c4ccccc4)c4ccccc4)C(C)=C1C3(C)C)[C@]1(OC(C)=O)CO[C@@H]1C[C@@H]2O [PACLITAXEL],Activity,ACHN,65.8%
CC/C=C\C/C=C\C/C=C\CCCCCCCC(=O)OCC(CO[C@H]1O[C@H](CN)[C@@H](O)[C@H](O)[C@H]1O)OC(=O)CCCCCCC/C=C\C/C=C\C/C=C\CC (stereo not given in full),IC50,SMMC-7721,70.3 µg/mL
same,IC50,HeLa [15],70.3 µg/mL
same,IC50,B16,70.3 µg/mL
